Assay results reported in patent US20090088482A1, “Compositions and Methods For Treating Heart Failure” (The Trustees Of Columbia University In The City New York, priority 2003, published 2009).

How the values were obtained:
[1] = test system: rats with chronic heart failure induced by coronary artery ligation; assay: Echocardiography and direct hemodynamic monitoring in rats with chronic heart failure induced by coronary artery ligation (Example 2); assay type: in vivo; conditions: 2 mg/kg/day oral, 8 weeks
Method: (§1) Chronic heart failure was induced by coronary artery ligation in rats, and was confirmed by echocardiography, three weeks post-surgery. Three groups of rats were studied: (1) Chronic heart failure without clenbuterol (n=7); (2) chronic heart failure+clenbuterol (2 mg/kg/day; n=5); and (3) rats after sham operation (n=11). After 8 weeks of oral clenbuterol therapy, echocardiography and direct hemodynamic monitoring were performed. Rat hearts were then harvested for ex vivo left ventricular pressure-volume relationship (LVPVR) tracings, histologic (trichrome) sections, and molecular assays. Western analysis for myocardial calcium-handling proteins (ryanodine receptors (RyR), SERCA2a, phospholamban, and calcium-sodium exchanger) was assessed by densitometry.

[2] = test system: rats with HF induced by LAD ligation; assay: Body weight and heart weight in LAD ligation ischemic HF rats (Example 5); assay type: in vivo, Sprague-Dawley rats; conditions: mean ± SD, 9 weeks oral therapy; for Heart Wt: HF 2.16 ± 0.33, Sham 1.72 ± 0.09; for % Δ Weight (percentage change in pre-treatment to post-treatment weights): clenbuterol 1 mg/kg/day, metoprolol 200 mg/kg/day, HF 33.8 ± 4.79, Sham 76.1 ± 19.3
Method: All studies were performed in compliance with the Guide for the Care and Use of Laboratory Animals (NRC 1996) and were approved by the Institutional Animal Care and Use Committee of Columbia University. Sprague-Dawley rats (Charles River Laboratories, Wilmington, Mass.) weighing 250 to 300 g were used for all experiments. Food and water were provided ad libitum, with rats housed in a light- and temperature-controlled room over the 12-week study period.
After the induction of general anesthesia with the use of intraperitoneal ketamine (75 mg/kg; Fort Dodge Animal Health, Fort Dodge, Iowa) and xylazine (5 mg/kg; Lloyd Laboratories, Shenandoah, Iowa), endotracheal intubation with a 16-guage angiocathether was performed. Rats were supported by a small animal ventilator (Harvard Apparatus, Holliston, Mass.). After performing a left thoracotomy, a sham operation (pericardiectomy only) or left anterior descending artery (LAD) ligation with a 7-0 polypropylene suture was performed. Subsequently, a chest tube (16-guage angiocathether) was placed in the left pleural space prior to closing the incision in three layers. Finally, the chest tube was used to aspirate the pleural cavity and removed after extubation.
A total of 69 rats were used in this study. LAD ligation surgery was performed in 60 rats, of which 37 (62%) survived three weeks post-surgery. Another 9 rats underwent a sham operation (group Sham), with 7 (78%) survivors. Three weeks post-operatively, echocardiography was performed to establish the baseline level of HF (as measured by fractional shortening). The LAD ligation rats were divided into 4 treatment groups matched for the degree of HF and were randomly assigned to one of the following therapies for 9 additional weeks: (1) rats receiving no therapy (group HF, n=9); (2) rats receiving high-dose clenbuterol at 1 mg/kg/day (group Clen, n=9); (3) rats receiving high-dose metoprolol at 200 mg/kg/day (group Meto, n=9); or (4) rats receiving concurrent high-dose clenbuterol at 1 mg/kg/day and high-dose metoprolol therapy at 200 mg/kg/day (group Clen+Meto, n=10).
Clenbuterol (ICN Biomedicals, Aurora, Ohio) was sonicated and subsequently dissolved in the drinking water. Metoprolol (Sigma-Aldrich, St. Louis, Mo.) was dissolved in the drinking water either alone or in combination with clenbuterol for the Clen+Meto group. The concentrations of clenbuterol and metoprolol were varied to keep the study drug dose delivered within a narrow therapeutic window based on daily water consumption. […]
Body weight was measured pre-surgery and 3 and 12 weeks post-surgery. Heart weight was measured immediately after the heart was excised. The ratio of body weight to heart weight was subsequently calculated.

[3] = ten of 15 LVAD patients; with ACE inhibition, β-1 selective blockade, spironolactone; cited from earlier work
SERCA2a = assay: Western analysis of myocardial calcium-handling proteins by densitometry: SERCA2a (Example 2); assay type: in vivo, rats; conditions: 2 mg/kg/day oral, 8 weeks, untreated CHF 1.7±0.5, Sham 2.2±0.4
Method: as §1

[4] = test system: ryanodine receptors (RyR); assay: Western analysis of myocardial calcium-handling proteins by densitometry: RyR (Example 2); assay type: in vivo, rats; conditions: 2 mg/kg/day oral, 8 weeks, untreated CHF 1.6±0.4, Sham 2.8±0.8
Method: as §1

ryanodine receptor (RyR) = assay: Western blot of calcium-handling protein expression: RyR (Example 5); assay type: in vivo, Sprague-Dawley rats; conditions: FIG. 6; not different from Sham
Method: Five rat hearts from each group (HF, Clen, Meto, Clen+Meto, and Sham) were randomly selected and used for analysis of calcium-handling protein expression levels. Lysates of LV tissue were obtained with the use of a homogenizer (Brinkmann Instruments, Westbury, N.Y.). Approximately 150 mg of heart tissue was placed in a seven-fold volume of lysis buffer (20 mM/L Na-HEPES, 4 mM/L EGTA, 1 mM/L DTT, pH 7.4) in the presence of proteinase inhibitors (0.1 mM/L leupeptin and 0.3 mM/L PMSF). The protein concentration was determined using a protein assay kit (Bio-Rad Laboratories, Hercules, Calif.). Samples (50 μg) were denatured at 95° C. and size-fractionated using SDS-polyacrylamide gel electrophoresis (PAGE) under reducing conditions. SDS-PAGE was performed using 7.5% separating and 5% stacking gels for SERCA2a and 5% separating and 4% stacking gels for RyR. Electrophoresis was performed in a Miniprotean II cell (Bio-Rad Laboratories, Hercules, Calif.) followed by transfer of proteins (using 34 V overnight at 4° C.) onto nitrocellulose in a mini trans-blot transfer cell (Bio-Rad Laboratories, Hercules, Calif.) filled with transfer buffer (25 m/L Tris-HCl, pH 8.3, 192 mM/L glycine and 20% methanol). […]
Optical densities of protein level signals were quantified with the use of a laser scanning densitometer (Molecular Dynamics, Palo Alto, Calif.) in a blinded manner. […]

Compound	LVEDP ([1]; untreated CHF 27±5, Sham 12±3)	LV fractional area change ([1]; untreated CHF 35±3, Sham 53±2)	LV pressure ([1]; untreated CHF 94±2.8, Sham 114±3.3)	LVdP/dt ([1]; untreated CHF 2,570±384, Sham 3,728±193)	Heart Wt [2]	% Δ Weight (percentage change in pre-treatment to post-treatment weights) [2]	rate of myocardial recovery (LVAD explantation for recovery) [3]	Protein level of SERCA2a (SERCA2a)	Protein level of RyR [4]	RyR protein expression level relative to tubulin, versus HF group (ryanodine receptor (RyR))
CC(C)(C)NCC(O)c1cc(Cl)c(N)c(Cl)c1 (stereo not drawn) [Clen, clenbuterol]	15±6 mmHg	42±1%	100±6 mmHg	3,250±325 mmHg/s	2.64 ± 0.41 § † gm	49.9 ± 7.18 † %	67%	2.0±0.2	2.2±0.7	significantly improved
COCCc1ccc(OCC(O)CNC(C)C)cc1 (stereo not drawn) [Meto, metoprolol]					2.17 ± 0.34 gm	32.3 ± 7.16 %				
